Test results as given in ChEMBL document CHEMBL1201862, “PubChem BioAssay data set” (2004).
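Protocol summary: plate cells (96-well), add compound at 5 concentrations, incubate 48 h, interpolate endpoints linearly. GI50 = concentration required for 50% inhibition of growth.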 Active and inactive are the calls of the source. Rule as the data show it: active = GI50 up to about 1.1 µM and inactive = higher.

What was measured:
Test in all cases: NCI anticancer screen, dose series, 48 h
MDA-MB-435 = tested on: MDA-MB-435
NCI/ADR-RES = tested on: NCI/ADR-RES
SK-MEL-28 = tested on: SK-MEL-28
SF-539 = tested on: SF-539
HT-29 = tested on: HT-29
RPMI-8226 = tested on: RPMI-8226
HCT-116 = tested on: HCT-116
HOP-92 = tested on: HOP-92
HCT-15 = tested on: HCT-15
SNB-19 = tested on: SNB-19
ACHN = tested on: ACHN
BT-549 = tested on: BT-549
NCI-H460 = tested on: NCI-H460
SN12C = tested on: SN12C
OVCAR-8 = tested on: OVCAR-8
DU-145 = tested on: DU-145
UO-31 = tested on: UO-31
RXF 393 = tested on: RXF 393
SK-OV-3 = tested on: SK-OV-3

SMILES | GI50 (MDA-MB-435) | GI50 (NCI/ADR-RES) | GI50 (SK-MEL-28) | GI50 (SF-539) | GI50 (HT-29) | GI50 (RPMI-8226) | GI50 (HCT-116) | GI50 (HOP-92) | GI50 (HCT-15) [µM] | GI50 (SNB-19) | GI50 (ACHN) | GI50 (BT-549) | GI50 (NCI-H460) | GI50 (SN12C) | GI50 (OVCAR-8) | GI50 (DU-145) | GI50 (UO-31) | GI50 (RXF 393) | GI50 (SK-OV-3)
C=CCC1(O)CC(n2cc(C)c(=O)[nH]c2=O)OC1CO[Si](C)(C)C(C)(C)C (stereo not given) | 41.5 µM (inactive) | 43.1 µM (inactive) | 68.9 µM (inactive) | 53.5 µM (inactive) | 40.9 µM (inactive) | 37.4 µM (inactive) | 42 µM (inactive) | 35.5 µM (inactive) | 44.4 | > 100 µM (inactive) | 45.6 µM (inactive) | 46.3 µM (inactive) | 38.7 µM (inactive) | 31.6 µM (inactive) | 42.9 µM (inactive) | 45.8 µM (inactive) | 42.4 µM (inactive) | 29 µM (inactive) | 
Cc1oc2nc(N(C)C)nc(NN)c2c1C | > 100 µM (inactive) | > 100 µM (inactive) | > 100 µM (inactive) | > 100 µM (inactive) | > 100 µM (inactive) | > 100 µM (inactive) | > 100 µM (inactive) | > 100 µM (inactive) | > 100 | > 100 µM (inactive) | > 100 µM (inactive) | > 100 µM (inactive) | > 100 µM (inactive) | > 100 µM (inactive) | > 100 µM (inactive) | > 100 µM (inactive) | 61.7 µM (inactive) | > 100 µM (inactive) | 
Cc1cc(S(=O)(=O)Nc2nc3ccsc3c(=O)n2N)c(S)cc1Cl | 83.8 µM (inactive) | 85.3 µM (inactive) | > 100 µM (inactive) | > 100 µM (inactive) | > 100 µM (inactive) | > 100 µM (inactive) | 94.8 µM (inactive) |  | 50.7 | 37.2 µM (inactive) | 56.9 µM (inactive) | > 100 µM (inactive) | 53.2 µM (inactive) | > 100 µM (inactive) | > 100 µM (inactive) | > 100 µM (inactive) |  |  | > 100 µM (inactive)
OC(C1CCC=NN1C(O)(C(F)(F)F)C(F)(F)F)(C(F)(F)F)C(F)(F)F (stereo not given) | > 10 µM (inactive) | > 10 µM (inactive) | > 10 µM (inactive) | > 10 µM (inactive) | > 10 µM (inactive) | > 10 µM (inactive) | > 10 µM (inactive) | > 10 µM (inactive) | > 10 | > 10 µM (inactive) | > 10 µM (inactive) | > 10 µM (inactive) | > 10 µM (inactive) | > 10 µM (inactive) | > 10 µM (inactive) | > 10 µM (inactive) |  | > 10 µM (inactive) | > 10 µM (inactive)
O=[N+]([O-])c1cc2c(c([N+](=O)[O-])c1)NCc1ccccc1O2 | > 100 µM (inactive) | > 100 µM (inactive) | > 100 µM (inactive) | 69.3 µM (inactive) | > 100 µM (inactive) | > 100 µM (inactive) | > 100 µM (inactive) | > 100 µM (inactive) | > 100 |  | > 100 µM (inactive) | > 100 µM (inactive) | > 100 µM (inactive) | > 100 µM (inactive) | 71.1 µM (inactive) | > 100 µM (inactive) | > 100 µM (inactive) | 16 µM (inactive) | 
O=Cc1ccc(-c2ccc(S(=O)(=O)O)cc2)o1 | > 100 µM (inactive) | > 100 µM (inactive) | > 100 µM (inactive) | > 100 µM (inactive) | > 100 µM (inactive) | > 100 µM (inactive) | > 100 µM (inactive) |  | > 100 | > 100 µM (inactive) | > 100 µM (inactive) | > 100 µM (inactive) | > 100 µM (inactive) | > 100 µM (inactive) | > 100 µM (inactive) | > 100 µM (inactive) | > 100 µM (inactive) | > 100 µM (inactive) | > 100 µM (inactive)
Cc1n[nH]c(=S)n1/N=C/c1ccc(-c2ccc(Cl)cc2)o1 | > 100 µM (inactive) | > 100 µM (inactive) | > 100 µM (inactive) | 77.1 µM (inactive) | > 100 µM (inactive) | > 100 µM (inactive) | > 100 µM (inactive) | 69 µM (inactive) | > 100 |  | 63.7 µM (inactive) | 11.3 µM (inactive) | > 100 µM (inactive) |  | 93.1 µM (inactive) | > 100 µM (inactive) | > 100 µM (inactive) | 43 µM (inactive) | 
Cc1c(O)c(OC2OC(CO)C(O)C(O)C2O)cc2c1CC[C@@H]1C2(C)C(=O)C[C@]2(C)[C@@H]([C@@](C)(O)C3CCC(C)(C)O3)[C@H](O)C[C@@]12C (stereo not given in full) | > 100 µM (inactive) | > 100 µM (inactive) | > 100 µM (inactive) | > 100 µM (inactive) | > 100 µM (inactive) |  | > 100 µM (inactive) | > 100 µM (inactive) | > 100 | > 100 µM (inactive) | > 100 µM (inactive) | > 100 µM (inactive) | > 100 µM (inactive) | > 100 µM (inactive) | > 100 µM (inactive) | > 100 µM (inactive) | > 100 µM (inactive) | > 100 µM (inactive) | > 100 µM (inactive)
COc1ccc2c(CC(=O)O)cc(=O)oc2c1 | > 100 µM (inactive) | > 100 µM (inactive) | > 100 µM (inactive) | > 100 µM (inactive) | > 100 µM (inactive) | > 100 µM (inactive) | > 100 µM (inactive) | 86.1 µM (inactive) | > 100 | > 100 µM (inactive) | > 100 µM (inactive) | > 100 µM (inactive) | > 100 µM (inactive) | > 100 µM (inactive) | > 100 µM (inactive) | > 100 µM (inactive) | > 100 µM (inactive) | > 100 µM (inactive) | 
CCOC(=O)Nc1cc2c(c(N)n1)N=C(c1ccc(Cl)cc1Cl)CN2 | < 0.01 µM (active) | < 0.0154 µM (active) |  | < 0.0173 µM (active) | < 0.0181 µM (active) | < 0.01 µM (active) | < 0.01 µM (active) | 17.3 µM (inactive) | < 0.0229 | 0.019 µM (active) | 0.0535 µM (active) | 0.791 µM (active) | < 0.0154 µM (active) | 0.0805 µM (active) | 0.0276 µM (active) | < 0.0191 µM (active) | 0.052 µM (active) | < 0.01 µM (active) | 0.509 µM (active)
N#CC1=C(N)N(/N=C/c2ccccc2)C(c2ccccc2)C1(C#N)C#N (stereo not given) | 18.2 µM (inactive) | 21.6 µM (inactive) | 4.79 µM (inactive) | 16.5 µM (inactive) | 4 µM (inactive) | 4.94 µM (inactive) | 2.81 µM (inactive) | 2.98 µM (inactive) | 6.75 | 23.1 µM (inactive) | 4.3 µM (inactive) | 14.6 µM (inactive) |  | 14.6 µM (inactive) | 18.7 µM (inactive) | 16.5 µM (inactive) | 15.7 µM (inactive) | 3.39 µM (inactive) | 12.6 µM (inactive)
C=CCc1cccc2cc(C(=O)Nc3ccccn3)c(=N)oc12 | > 100 µM (inactive) | > 100 µM (inactive) | > 100 µM (inactive) | 92.5 µM (inactive) | > 100 µM (inactive) | > 100 µM (inactive) | 56.6 µM (inactive) | > 100 µM (inactive) | > 100 | > 100 µM (inactive) | 45.4 µM (inactive) | > 100 µM (inactive) | > 100 µM (inactive) | > 100 µM (inactive) | > 100 µM (inactive) | > 100 µM (inactive) |  | > 100 µM (inactive) | > 100 µM (inactive)
COC(=O)/C=C(\C(=O)OC)C1C(=O)Oc2c(C)c(=O)c3ccccc3n21 (stereo not given) | > 100 µM (inactive) | > 100 µM (inactive) | > 100 µM (inactive) | > 100 µM (inactive) | > 100 µM (inactive) | > 100 µM (inactive) | > 100 µM (inactive) |  | > 100 | > 100 µM (inactive) |  | > 100 µM (inactive) | > 100 µM (inactive) | > 100 µM (inactive) | > 100 µM (inactive) | > 100 µM (inactive) |  | > 100 µM (inactive) | > 100 µM (inactive)
O=C1CSC(c2cccc(Oc3ccccc3)c2)N1c1ccc(Cl)cc1 (stereo not given) | 23.2 µM (inactive) | 24.4 µM (inactive) | 41.2 µM (inactive) | 32.1 µM (inactive) | 37.8 µM (inactive) |  | 13.6 µM (inactive) | 13.4 µM (inactive) | 26.4 | 54.8 µM (inactive) | 26.1 µM (inactive) | 27.7 µM (inactive) | 17.1 µM (inactive) | 41.3 µM (inactive) | 34.7 µM (inactive) | 52.2 µM (inactive) | 34.5 µM (inactive) | 20.4 µM (inactive) | 66.4 µM (inactive)
OCCOc1ccccc2cccc1-2 | > 100 µM (inactive) | > 100 µM (inactive) | > 100 µM (inactive) | > 100 µM (inactive) | > 100 µM (inactive) | 61.8 µM (inactive) | > 100 µM (inactive) | > 100 µM (inactive) | > 100 | > 100 µM (inactive) | > 100 µM (inactive) | > 100 µM (inactive) | 73.6 µM (inactive) | > 100 µM (inactive) | > 100 µM (inactive) | > 100 µM (inactive) | > 100 µM (inactive) |  | > 100 µM (inactive)
COC(=O)/C=C\[C@H]1[C@H](C)N1S(=O)(=O)c1ccc(C)cc1 (stereo not given in full) | > 100 µM (inactive) | > 100 µM (inactive) | > 100 µM (inactive) | > 100 µM (inactive) | > 100 µM (inactive) | > 100 µM (inactive) | > 100 µM (inactive) |  | 70.3 | > 100 µM (inactive) | > 100 µM (inactive) | > 100 µM (inactive) | > 100 µM (inactive) | > 100 µM (inactive) | > 100 µM (inactive) | > 100 µM (inactive) |  | > 100 µM (inactive) | > 100 µM (inactive)
